# BindingDB's records for doi:10.1111/cbdd.12016 (Peking University Health Science Center, 2012)
# Molecular target: Beta-secretase 1 (Homo sapiens, UniProt P56817)
# Test: Fluorescence Resonance Energy Transfer (FRET) Assay
# Method: BACE1 inhibitory evaluation was carried out using a Fluorescence Resonance Energy Transfer (FRET) assay kit supplied by PanVera (kit P2985, Madison, WI, USA).
# Chain of Beta-secretase 1 (P56817 whole entry): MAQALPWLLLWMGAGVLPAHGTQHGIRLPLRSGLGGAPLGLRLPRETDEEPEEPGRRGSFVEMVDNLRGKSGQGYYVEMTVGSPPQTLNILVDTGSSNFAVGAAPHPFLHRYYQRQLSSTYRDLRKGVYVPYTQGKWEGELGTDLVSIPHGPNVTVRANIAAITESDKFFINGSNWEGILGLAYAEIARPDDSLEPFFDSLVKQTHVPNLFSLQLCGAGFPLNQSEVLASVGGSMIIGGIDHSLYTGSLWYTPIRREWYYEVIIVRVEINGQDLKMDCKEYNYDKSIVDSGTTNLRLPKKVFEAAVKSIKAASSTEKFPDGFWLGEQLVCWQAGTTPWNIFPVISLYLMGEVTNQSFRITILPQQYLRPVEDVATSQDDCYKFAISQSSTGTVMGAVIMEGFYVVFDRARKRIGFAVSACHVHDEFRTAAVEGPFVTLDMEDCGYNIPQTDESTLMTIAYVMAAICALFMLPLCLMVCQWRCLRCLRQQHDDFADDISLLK
row,SMILES,IC50 [µM]
1,"CCCOc1cccc(-c2cc(Oc3ccccc3)cc(C(=N)N)c2)c1 [Benzimidamide, 6a]",8.02
2,"CCCOc1cccc(-c2cc(C#N)cc(Oc3ccccc3F)c2)c1 [Benzonitrile, 5c]",80.3
3,"CCCCOc1cccc(-c2cc(C#N)cc(Oc3ccccc3F)c2)c1 [Benzonitrile, 5d]",9.35

# Now those with a lower IC50, led by results:
row,IC50 [µM],SMILES
1,7.03,"CCCCOc1cccc(-c2cc(Oc3ccccc3)cc(C(=N)N)c2)c1 [Benzimidamide, 6b]"
2,4.36,"CCCOc1cccc(-c2cc(Oc3ccccc3F)cc(C(=N)N)c2)c1 [Benzimidamide, 6c]"
3,3.35,"CCCCOc1cccc(-c2cc(Oc3ccccc3F)cc(C(=N)N)c2)c1 [Benzimidamide, 6d]"
